Key:
Assay in all cases: relative viability (nuclei count vs DMSO), 5 days (fraction); higher = more cells survive
Everolimus + Crizotinib = compound: CO[C@H]1C[C@@H]2CC[C@@H](C)[C@@](O)(O2)C(=O)C(=O)N2CCCC[C@H]2C(=O)O[C@H]([C@H](C)C[C@@H]2CC[C@@H](OCCO)[C@H](OC)C2)CC(=O)[C@H](C)/C=C(\C)[C@@H](O)[C@@H](OC)C(=O)[C@H](C)C[C@H](C)/C=C/C=C/C=C/1C [Everolimus] + C[C@@H](Oc1cc(-c2cnn(C3CCNCC3)c2)cnc1N)c1c(Cl)ccc(F)c1Cl [Crizotinib] (partner 1 µM)
In short: (§1)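 Nuclei were stained with Hoechst during a one-step fixation (final 0.05% Triton X-100, 1% formaldehyde, 1 ug/ml Hoechst) carried out 5 days after dosing, then counted on 4× images. The cells, lung cancer lines in 1536-well plates, had been dosed by pin tool the day after seeding with one drug alone or a fixed anchor-drug dose plus five library-drug doses (not always all listed) in √10 steps. Relative viability is the nuclei count in treated wells divided by that in vehicle wells, and each value is the median of duplicate plates.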

Everolimus + Tozasertib = compound: CO[C@H]1C[C@@H]2CC[C@@H](C)[C@@](O)(O2)C(=O)C(=O)N2CCCC[C@H]2C(=O)O[C@H]([C@H](C)C[C@@H]2CC[C@@H](OCCO)[C@H](OC)C2)CC(=O)[C@H](C)/C=C(\C)[C@@H](O)[C@@H](OC)C(=O)[C@H](C)C[C@H](C)/C=C/C=C/C=C/1C [Everolimus] + Cc1cc(Nc2cc(N3CCN(C)CC3)nc(Sc3ccc(NC(=O)C4CC4)cc3)n2)n[nH]1 [Tozasertib] (partner 0.1 µM)
In short: as §1

Everolimus + Decitabine = compound: CO[C@H]1C[C@@H]2CC[C@@H](C)[C@@](O)(O2)C(=O)C(=O)N2CCCC[C@H]2C(=O)O[C@H]([C@H](C)C[C@@H]2CC[C@@H](OCCO)[C@H](OC)C2)CC(=O)[C@H](C)/C=C(\C)[C@@H](O)[C@@H](OC)C(=O)[C@H](C)C[C@H](C)/C=C/C=C/C=C/1C [Everolimus] + Nc1ncn([C@H]2C[C@H](O)[C@@H](CO)O2)c(=O)n1 [Decitabine] (partner 2 µM)
In short: as §1

Everolimus + Lapatinib = compound: CO[C@H]1C[C@@H]2CC[C@@H](C)[C@@](O)(O2)C(=O)C(=O)N2CCCC[C@H]2C(=O)O[C@H]([C@H](C)C[C@@H]2CC[C@@H](OCCO)[C@H](OC)C2)CC(=O)[C@H](C)/C=C(\C)[C@@H](O)[C@@H](OC)C(=O)[C@H](C)C[C@H](C)/C=C/C=C/C=C/1C [Everolimus] + CS(=O)(=O)CCNCc1ccc(-c2ccc3ncnc(Nc4ccc(OCc5cccc(F)c5)c(Cl)c4)c3c2)o1 [Lapatinib] (partner 2 µM)
In short: as §1

Cell Line | relative viability (Everolimus + Crizotinib; first compound 0.01 µM) | relative viability (Everolimus + Crizotinib; first compound 0.03162 µM) | relative viability (Everolimus + Crizotinib; first compound 0.1 µM) | relative viability (Everolimus + Crizotinib; first compound 0.3162 µM) | relative viability (Everolimus + Crizotinib; first compound 1 µM) | relative viability (Everolimus + Tozasertib; first compound 0.01 µM) | relative viability (Everolimus + Tozasertib; first compound 0.03162 µM) | relative viability (Everolimus + Tozasertib; first compound 0.1 µM) | relative viability (Everolimus + Tozasertib; first compound 0.3162 µM) | relative viability (Everolimus + Tozasertib; first compound 1 µM) | relative viability (Everolimus + Decitabine; first compound 0.01 µM) | relative viability (Everolimus + Decitabine; first compound 0.03162 µM) | relative viability (Everolimus + Decitabine; first compound 0.1 µM) | relative viability (Everolimus + Decitabine; first compound 0.3162 µM) | relative viability (Everolimus + Decitabine; first compound 1 µM) | relative viability (Everolimus + Lapatinib; first compound 0.01 µM) | relative viability (Everolimus + Lapatinib; first compound 0.03162 µM) | relative viability (Everolimus + Lapatinib; first compound 0.1 µM) | relative viability (Everolimus + Lapatinib; first compound 0.3162 µM) | relative viability (Everolimus + Lapatinib; first compound 1 µM)
NCI-H3122 | 0.219 | 0.246 | 0.238 | 0.194 | 0.192 | 0.417 | 0.517 | 0.421 | 0.439 | 0.363 | 0.267 | 0.253 | 0.213 | 0.215 | 0.203 | 1.09 | 1.16 | 1.06 | 1.07 | 0.951
PC-3 [JPC-3] | 1.02 | 0.992 | 0.911 | 0.96 | 1.02 | 0.927 | 0.806 | 0.849 | 0.868 | 0.873 | 0.813 | 0.794 | 0.687 |  | 0.802 | 0.372 | 0.382 | 0.346 | 0.359 | 0.412
PC-14 | 0.983 | 0.936 | 0.942 | 0.908 | 0.741 | 0.592 | 0.673 | 0.499 | 0.417 | 0.424 | 0.276 | 0.26 | 0.235 | 0.296 | 0.293 | 0.231 | 0.226 | 0.22 | 0.192 | 0.234
RERF-LC-KJ | 0.804 | 0.627 | 0.683 | 0.667 | 0.567 | 0.398 | 0.436 | 0.382 | 0.431 | 0.428 | 0.535 | 0.594 | 0.552 | 0.541 | 0.45 | 0.636 | 0.597 | 0.503 | 0.487 | 0.486
SK-LU-1 | 0.478 | 0.511 | 0.572 | 0.544 | 0.626 | 0.285 | 0.262 | 0.24 | 0.241 | 0.289 | 0.411 | 0.474 | 0.474 | 0.516 | 0.524 | 0.638 | 0.624 | 0.576 | 0.49 | 0.61
SK-MES-1 | 0.871 | 0.689 | 0.689 | 0.644 | 0.608 | 0.791 | 0.807 | 0.794 | 0.779 | 0.662 | 0.346 | 0.362 | 0.335 | 0.345 | 0.501 | 0.358 | 0.384 | 0.326 | 0.384 | 0.325
SW 1573 | 0.593 | 0.521 | 0.53 | 0.383 | 0.427 | 0.16 | 0.172 | 0.13 | 0.157 | 0.132 | 0.268 | 0.331 | 0.298 | 0.306 | 0.338 | 0.649 | 0.705 | 0.627 | 0.686 | 0.572
UMC-11 | 0.271 | 0.244 | 0.239 | 0.249 | 0.286 | 0.212 | 0.195 | 0.208 | 0.215 | 0.198 | 0.329 | 0.359 | 0.352 | 0.367 | 0.392 | 0.373 | 0.326 | 0.306 | 0.433 | 0.438
